# Results from patent US9428815B2, “HIV-1 reverse transcriptase codon deletion and its use in the management and treatment of HIV infections” (Emory University, priority 2007, dated 2016).
# What was measured:
# [1] = test system: HIVs68Δ-23 (S68del virus isolated at week 23); experiment: 3H-TTP RT incorporation assay, drug susceptibility of in vitro-selected S68del virus in human PBM cells; assay type: cell-based, HIV-1; conditions: for EC50 / EC90: HIVs68Δ-23 in human PBM cells, averages of 2-6 independent experiments; for resistance of S68del (in words): S68del mutant HIV, summary statement; for FI EC50 (fold increase in 50% effective concentration) / FI EC90 (fold increase in 90% effective concentration): HIVs68Δ-23 relative to HIVLAI; for HIVs68Δ-23 susceptibility (in words): NNRTI / PI
# Experimental: Peripheral blood mononuclear (PBM) cells were separated by ficoll-hypaque (Histopaque 1077: Sigma) density gradient centrifugation from Buffy coats obtained from the American Red Cross (Atlanta, Ga.). Buffy coats were derived from healthy seronegative donors. Cells were activated with 3 μg/ml phytohaemagglutinin A (Sigma-Aldrich, St. Louis, Mo.) in 500 ml of RPMI-1640 (Mediatech Inc., Herndon, Va.) containing 100 ml heat-inactivated fetal bovine serum (Hyclone), 83.3 IU/ml penicillin, 83.3 μg/ml streptomycin, 1.6 mM L-glutamine (Mediatech Inc., Herndon, Va.), for 2-3 days prior to use.
# Drug resistance of the S68del virus isolated at week 23 (HIVs68Δ-23) was measured with the 3H-TTP RT incorporation assay in human PBM cells (Schinazi, et al., Antimicrob. Agents Chemother. 1990; 34:1061-1067; Stuyver et al., Antimicrob. Agents Chemother. 2002; 46:3854-60). HIVs68Δ-23 was population sequenced to ensure the dominant population was the deletion at codon 68. […] The susceptibility of the S68del virus to several nucleoside reverse transcriptase inhibitors (NRTI), a non-nucleoside reverse transcriptase inhibitor (NNRTI) and a protease inhibitor (PI) was tested. Fold increases were measured relative to HIVLAI (Table 4, FIGS. 2 and 3). Data are the averages of 2-6 independent experiments.
# pNL4-3 = experiment: Quantitative HIV-1 real-time PCR assay in human PBM cells, pNL4-3 virus; assay type: cell-based; conditions: Human immunodeficiency virus 1, PBMC, pNL4-3 in human PBM cells
# Description: The real-time PCR assay for quantifying virus levels in PBM cells serves as a more sensitive method for measuring drug resistance of S68del HIV-1 than other standard methods. SK38 Primer: ATAATCCACCTATCCCAGTAGGAGAAAT (SEQ ID NO: 1) and SK39 Primer: TTTGGTCCTTGTCTTATGTCCAGAATGC (SEQ ID NO: 2) were used in the real-time PCR assay. The presence of amplified product was detected with the SK19 probe: ATCCTGGGATTAAATAAAATAGTAAGAATGTATAG (SEQ ID NO: 3). […] Four concentrations were tested in duplicate for each data point.
# S68delpNL4-3 = experiment: microbe, parasite or virus in culture; assay type: cell-based, HIV-1
# Description: An intermediate vector with a 4 kb fragment of pNL4-3 ([…]) containing the RT coding region was cloned into the pCR2.1 vector (Invitrogen). […] The HIV-1 fragment from the intermediate vector was digested with Spe I/Age I and subcloned into the full-length pNL4-3 vector. The S68del pNL4-3-based infectious clone was then transfected into HEK293T cells and supernatant was collected after 4 days. The supernatant obtained from HEK293T was used to infect fresh PBM cells, after which the HIV-1 virus pool was passaged to establish an infective pool.
# Four concentrations were tested in duplicate for each data point.
# [2] = target: T1, RT from virally-derived S68del (Human immunodeficiency virus type 1 group M subtype B, UniProt P03367, DEL667-667); experiment: Heteropolymeric-DNA colorimetric RT assay with 3.2 mM ATP, particle-derived S68del RT; assay type: biochemical, HIV-1; conditions: for resistance of S68del RT (in words): particle-derived RT, 3.2 mM ATP, FIG. 5; for fold increase in resistance: virally-derived S68del RT, relative to HIVLAI, enzymatic assay
# T1 construct: The resistance of RT derived from S68del and M184V particles; made in house; host or cells: crude virus pellet; the virus was passaged in human PBM cells
# Description: (§1) The principle and performance of the non-radioactive RT assay has been described (Lennerstrand et al., Antimicrob. Agents Chemother. 2007; 51:2078-2084). Separate kit components, such as covalently-linked DNA microtiter plates and tracer solution (alkaline phosphate (AP)-conjugated anti-BrdU antibody) were obtained from Cavidi Tech, Uppsala, Sweden. In brief, the 96-well microtiter plate used consisted of an 18 base heteropolymeric DNA primer covalently bound to the well. In the RT assay, the DNA primer is bound to a 50-base DNA template at 50 ng/well (190 nM) with a 5′-A12-3′ tail with a 5′-(GTCA)5-3′ repeat (Integrated DNA Technologies, USA). The RT assay reaction mixture (total volume 150 μl/well) contained: Hepes 50 mM, pH 7.3; MgCl2 10 mM; Triton X-100 0.5%; bovine serum albumin 0.1 mg/ml; dATP, dGTP, dCTP and 5-bromo-2′-deoxyuridine-5′-triphosphate (BrdUTP) at 1.0 μM each (where BrdUTP replaces TTP) (Sigma). To obtain ATP primer unblocking reaction in the assay, the ATP (Amersham/GE Health Care) was set to physiological concentration (3.2 mM). However, the ATP was only used in the assay with virus pellets as sample, not merely for primer unblocking reaction but to protect degradation of substrate in the crude sample. Furthermore, the dNTP level including BrdUTP was increased from 1 μM to 4 μM for the assay with the virus pellet samples. Subsequently, in the assay with recombinant purified RT enzyme, no ATP besides 1 μM dNTP was used.
# (§2) The reaction was started with the addition of RT either as recombinant or crude virus pellet form in a similar activity range as previous published (Lennerstrand et al., Antimicrob. Agents Chemother. 2007; 51:2078-2084). The RT reaction mixture was incubated at 33° C. for 180 min and terminated by NaOH (to dehybridize the template) and water washing of the plates.
# [3] = target: T2, Wild type Reverse Transcriptase (Human immunodeficiency virus type 1 group M subtype B, UniProt P12497); experiment: Heteropolymeric DNA polymerase RT assay in the absence of ATP, wild type RT; assay type: biochemical, HIV-1; conditions: for IC50: Wild type RT; for Fold-incr: Wild type RT (reference)
# T2 construct: The level of resistance to NRTI-TP by the S68del mutants compared to wild type RT
# Experimental: The level of resistance to NRTI-TP by the S68del mutants compared to wild type RT was determined as IC50 values of RT activity in the absence of ATP (Table 6). […] The RT activity was linear during the assay time within the substrate range used, and thus steady state kinetics were assumed.
# [4] = target: T3, Recombinant S68del Reverse Transcriptase (Human immunodeficiency virus type 1 group M subtype B, UniProt P12497, DEL655-655); experiment: Heteropolymeric DNA polymerase RT assay in the absence of ATP, recombinant S68del RT; assay type: biochemical, HIV-1
# T3 construct: The amplified PCR product comprising the RT of pNL4-3 was ligated into the linearized pQE60; inferred from the pQE60 vector and the in-frame BglII site of the reverse primer without a stop codon) (C); made in house; host or cells: bacteria
# Experimental: (§3) Nucleic acids were separated by gel electrophoresis in a TAE gel and extracted from bands using the Qiagen gel extraction kit. The 4.2 kb band from pNL4-3 containing the HIV-RT encoding sequences was ligated into the linearized pCR2.1, making the construct MC002. Site directed mutagenesis was performed on the MC002 plasmid. Primers used had the S68 codon AGT deleted, thus introducing the S68 deletion into the pNL4-3 RT background.
# (§4) To ligate the RT of pNL4-3 comprising the deletion at S68 codon 68 into protein expression vector […] (Invitrogen), MC002 was amplified using forward primer 5′-[…]-3′ (SEQ ID NO: 10) and reverse primer 5′-[…] […]-3′ (SEQ ID NO: 11). The PCR product and pQE60 were digested with Bgl II and Nco I. The digested products were separated by gel electrophoresis nucleic acids in excised gel bands extracted using the Qiagen gel extraction kit. The amplified PCR product comprising the RT of pNL4-3 was ligated into the linearized pQE60. The ligation mix was transformed into chemically competent bacteria (Alpha-select). Plasmid DNA from selected transformants was extracted using a mini-prep kit (Qiagen). Plasmid DNA was sequenced in both directions to confirm the ligation.
# as §1, §2
# [5] = test system: Recombinant S68del Reverse Transcriptase; experiment: as above; assay type: biochemical, HIV-1; conditions: Recombinant S68del RT IC50 divided by wild type IC50
# Experimental: as §3, §4, §1, §2
# [6] = target: RT derived from M184V particles (Human immunodeficiency virus type 1 group M subtype B, UniProt P03367, M783V); conditions: particle-derived RT, 3.2 mM ATP, FIG. 5
# Description: as §1, with “Subsequently, in the assay with recombinant purified RT enzyme, no ATP besides 1 μM dNTP was used.” left out
# [7] = Human immunodeficiency virus 1, PBMC
# [8] = Human immunodeficiency virus 1, PBMC, S68del in pNL4-3, human PBM cells, real-time PCR
structure (smiles),measurement,setting,value
"OC[C@@H]1CC[C@H](n2cnc3c(O)ncnc32)O1 [DDI, 2′,3′-dideoxyinosine]",EC50,[1]; [7],630 nM
same,EC90,[1]; [7],4500 nM
same,resistance of S68del (in words),[1],does not show increased resistance
"Cc1cn([C@H]2C[C@H](N=[N+]=[N-])[C@@H](CO)O2)c(=O)[nH]c1=O [AZT, 3′-azido-3′-deoxythymidine]",EC50,pNL4-3,130 nM
same,EC90,pNL4-3,330 nM
same,EC50,[1]; [7],3.8 nM
same,EC90,[1]; [7],14 nM
same,resistance of S68del (in words),[1],does not show increased resistance
"Nc1nc(=O)n([C@H]2C=C[C@@H](CO)O2)cc1F [DFC, β-D-2′,3′-didehydro-2′,3′-dideoxy-5-fluorocytidine]",EC50,S68delpNL4-3; [8],3100 nM
same,EC90,S68delpNL4-3; [8],8500 nM
same,"FI50, Fold Increase for S68del in 50% effective concentration",S68delpNL4-3; S68del in pNL4-3 versus pNL4-3,14.7
same,"FI90, Fold Increase for S68del in 90% effective concentration",S68delpNL4-3; S68del in pNL4-3 versus pNL4-3,3.7
same,resistance of S68delpNL4-3 (in words),"S68delpNL4-3; real-time PCR, human PBM cells",increased resistance
same,resistance of S68del RT (in words),[2],increased resistance
same,EC50,pNL4-3,210 nM
same,EC90,pNL4-3,2300 nM
same,EC50,[1]; [7],1100 nM
same,EC90,[1]; [7],3400 nM
"Nc1nc(N)c2ncn([C@H]3CO[C@@H](CO)O3)c2n1 [DAPD, (−)-beta-D-2,6-diaminopurine dioxolane]",FI EC50 (fold increase in 50% effective concentration),[1],38.2
same,FI EC90 (fold increase in 90% effective concentration),[1],32.4
same,EC50,[1]; [7],7900 nM
same,EC90,[1]; [7],34500 nM
"CC(C)OC(=O)OCOP(=O)(CO[C@H](C)Cn1cnc2c(N)ncnc21)OCOC(=O)OC(C)C.O=C(O)/C=C/C(=O)O [TDF, 9-[(R)-2-[[bis[[(isopropoxycarbonyl)oxy]methoxy]phosphinyl]methoxy]propyl]adenine fumarate]",EC50,[1]; [7],430 nM
same,EC90,[1]; [7],1600 nM
"Nc1nc2c(ncn2C2COC(CO)O2)c(=O)[nH]1 (single isomer, unassigned; (-)) [DXG, (−)-9-(beta-D-dioxolane)guanine]",EC50,[1],1600 nM
same,EC90,[1],5100 nM
same,FI EC50 (fold increase in 50% effective concentration),[1],6.2
same,FI EC90 (fold increase in 90% effective concentration),[1],3.7
Cc1cn(C2CC(N=[N+]=[N-])C(COP(=O)(O)OP(=O)(O)OP(=O)(O)O)O2)c(=O)[nH]c1=O (stereo not drawn) [AZT-TP],fold increase in resistance,[2],2.5 fold
same,IC50,[3],270 ± 20 nM
same,Fold-incr,[3],1.0
same,IC50,[4],700 ± 100 nM
same,Fold-incr,[5],2.6
"Nc1ccn([C@H]2CC[C@@H](CO)O2)c(=O)n1 [DDC, 2′,3′-dideoxycytidine]",EC50,[1]; [7],220 nM
same,EC90,[1]; [7],930 nM
same,resistance of S68del (in words),[1],does not show increased resistance
"Nc1ccn([C@@H]2CS[C@H](CO)O2)c(=O)n1 [3TC, (−)-cis-2-hydroxymethyl-5-(cytosin-1-yl)-1,3-oxathiolane]",EC50,[1]; [7],880 nM
same,EC90,[1]; [7],3300 nM
"Nc1nc(=O)n(C2CSC(COP(=O)(O)OP(=O)(O)OP(=O)(O)O)O2)cc1F (single isomer, unassigned; (-)) [(−)FTC-TP]",fold increase in resistance,[2],10 fold
same,IC50,[3],3500 ± 300 nM
same,Fold-incr,[3],1.0
same,IC50,[4],27000 ± 2000 nM
same,Fold-incr,[5],7.7
"Cc1cn([C@H]2C=C[C@@H](CO)O2)c(=O)[nH]c1=O [D4T, 2′,3′-dideoxy-2′,3′-didehydrothymidine]",EC50,[1]; [7],410 nM
same,EC90,[1]; [7],1500 nM
same,resistance of S68del (in words),[1],does not show increased resistance
"Nc1nc(=O)n([C@@H]2CS[C@H](CO)O2)cc1F (relative stereo) [(−)-FTC, cis-2-hydroxymethyl-5-(5-fluorocytosin-1-yl)-1,3-oxathiolane]",resistance of S68del RT (in words),[2],increased resistance
same,EC50,[1]; [7],300 nM
same,EC90,[1]; [7],1100 nM
same,resistance of M184V RT (in words),[6],increased resistance
"Nc1nc(NC2CC2)c2ncn([C@H]3C=C[C@@H](CO)C3)c2n1.O=C(O)CCC(=O)O [Abacavir, (1S,4R)-4-[2-amino-6-(cyclopropyl-amino)-9H-purin-9-yl]-2-cyclopentene-1-methanol succinate]",EC50,[1]; [7],3900 nM
same,EC90,[1]; [7],11300 nM
Cc1cccc(C)c1OCC(=O)N[C@@H](Cc1ccccc1)[C@@H](O)C[C@H](Cc1ccccc1)NC(=O)[C@H](C(C)C)N1CCCNC1=O [Lopinavir],EC50,[1]; [7],6 nM
same,EC90,[1]; [7],19 nM
same,HIVs68Δ-23 susceptibility (in words),[1],not significantly changed
Nc1nc(=O)n(C2C=CC(COP(=O)(O)OP(=O)(O)OP(=O)(O)O)O2)cc1F (stereo not drawn) [DFC-TP],fold increase in resistance,[2],5.6 fold
same,IC50,[3],140 ± 20 nM
same,Fold-incr,[3],1.0
same,IC50,[4],1100 ± 200 nM
same,Fold-incr,[5],7.9
"O=C1Nc2ccc(Cl)cc2[C@@](C#CC2CC2)(C(F)(F)F)O1 [Sustiva, (S)-6-chloro-4-cyclopropylethynyl-4-trifluoromethyl-1,4-dihydro-2H-3,1-b-enzoxazin-2-one]",EC50,[1]; [7],0.39 nM
same,EC90,[1]; [7],3.5 nM
same,HIVs68Δ-23 susceptibility (in words),[1],not significantly changed
